What was measured:
brain TNF production = conditions: mice, intracerebroventricular lipopolysaccharide; cited from earlier work
[1] = test system: primary cultures of human and murine microglia; conditions: stimulated with endotoxins or Abeta 1-40; cited from earlier work
U87MG glioma cells = conditions: cited from earlier work
[2] = test system: human gastric cancer cell line MKN28; conditions: cited from earlier work
[3] = test system: AML blasts harboring FLT3/ITD mutations; conditions: primary AML blasts harboring FLT3/ITD mutations; cited from earlier work
TrkA = TrkA (Homo sapiens, UniProt P04629); assay: AlphaScreen kinase assay, TrkA; type: biochemical; conditions: read-out: IC50, activity toward kinase TrkA
Source text: (§1) AlphaScreen assay was used to screen additional kinases. The assay is similarly dependent on the phosphorylation of a peptide substrate. In this assay, an antibody that recognizes phosphorylated substrate is bound to an acceptor bead. The peptide substrate is attached to biotin, which binds to a donor head that contains streptavidin. Thus phosphorylated substrate is bound by antibody and streptavidin, bringing the donor and acceptor heads into close proximity when kinase is not inhibited. The donor produces singlet oxygen which results in emission from the acceptor when they are in close proximity. Conversely, when kinase is inhibited, the donor and acceptor beads are not associated and the emission from the acceptor is reduced.
(§2) AlphaScreen assays were done using compounds dissolved in DMSO to a concentration of 20 mM. The compounds were diluted accordingly to the desired final concentrations in each sample well, using 1:3 serial dilution for a total of 8 concentration points.

Kdr = molecular target: T1, Kdr (Homo sapiens, UniProt P35968); assay: Z'-Lyte FRET kinase assay (Invitrogen), Kdr; type: biochemical; conditions: read-out: IC50, activity toward kinase Kdr
T1 construct: purchased Invitrogen (assay run by Invitrogen)

ALK = ALK (Homo sapiens, UniProt Q9UM73); assay: AlphaScreen kinase assay, ALK; type: biochemical; conditions: read-out: IC50, activity toward kinase ALK
Source text: as §1, §2

c-Raf-1 = molecular target: T2, c-Raf-1 (Homo sapiens, UniProt P04049); assay: AlphaScreen kinase assay, c-Raf-1; type: biochemical; conditions: read-out: IC50, activity toward kinase c-Raf-1
T2 construct: purchased Upstate Biotechnology

B-Raf = molecular target: T3, B-Raf (Homo sapiens, UniProt P15056); assay: AlphaScreen kinase assay, B-Raf; type: biochemical; conditions: read-out: IC50, activity toward kinase B-Raf
T3 construct: purchased Upstate Biotechnology
Procedure: AlphaScreen assays were done using compounds dissolved in DMSO to a concentration of 20 mM. The compounds were diluted accordingly to the desired final concentrations in each sample well, using 1:3 serial dilution for a total of 8 concentration points. Plates were prepared such that each kinase reaction is 20 μl in 1× kinase buffer, 5% DMSO and 10 μM ATP. After incubation of the kinase reaction for 1 hour at room temperature, 5 μl of donor beads in stop buffer (50 mM EDTA in 1× kinase buffer) was added, the sample was mixed and incubated for 20 minutes at room temperature before adding 5 μl of acceptor beads in stop buffer. The samples were incubated for 60 minutes at room temperature and the signal per well was read on AlphaQuest reader.

Frk = Frk (Homo sapiens, UniProt P42685); assay: AlphaScreen kinase assay, Frk; type: biochemical; conditions: read-out: IC50, activity toward kinase Frk
Source text: as §1, §2

Brk = Brk (Homo sapiens, UniProt Q13882); assay: AlphaScreen kinase assay, Brk; type: biochemical; conditions: read-out: IC50, activity toward kinase Brk
Source text: as §1, §2

Flt3 = molecular target: T4, Flt3 (Homo sapiens, UniProt P36888); assay: Z'-Lyte FRET kinase assay (Invitrogen), Flt3; type: biochemical; conditions: read-out: IC50, activity toward kinase Flt3
T4 construct: purchased Invitrogen (assay run by Invitrogen)
T4 sequence (P36888 27-993): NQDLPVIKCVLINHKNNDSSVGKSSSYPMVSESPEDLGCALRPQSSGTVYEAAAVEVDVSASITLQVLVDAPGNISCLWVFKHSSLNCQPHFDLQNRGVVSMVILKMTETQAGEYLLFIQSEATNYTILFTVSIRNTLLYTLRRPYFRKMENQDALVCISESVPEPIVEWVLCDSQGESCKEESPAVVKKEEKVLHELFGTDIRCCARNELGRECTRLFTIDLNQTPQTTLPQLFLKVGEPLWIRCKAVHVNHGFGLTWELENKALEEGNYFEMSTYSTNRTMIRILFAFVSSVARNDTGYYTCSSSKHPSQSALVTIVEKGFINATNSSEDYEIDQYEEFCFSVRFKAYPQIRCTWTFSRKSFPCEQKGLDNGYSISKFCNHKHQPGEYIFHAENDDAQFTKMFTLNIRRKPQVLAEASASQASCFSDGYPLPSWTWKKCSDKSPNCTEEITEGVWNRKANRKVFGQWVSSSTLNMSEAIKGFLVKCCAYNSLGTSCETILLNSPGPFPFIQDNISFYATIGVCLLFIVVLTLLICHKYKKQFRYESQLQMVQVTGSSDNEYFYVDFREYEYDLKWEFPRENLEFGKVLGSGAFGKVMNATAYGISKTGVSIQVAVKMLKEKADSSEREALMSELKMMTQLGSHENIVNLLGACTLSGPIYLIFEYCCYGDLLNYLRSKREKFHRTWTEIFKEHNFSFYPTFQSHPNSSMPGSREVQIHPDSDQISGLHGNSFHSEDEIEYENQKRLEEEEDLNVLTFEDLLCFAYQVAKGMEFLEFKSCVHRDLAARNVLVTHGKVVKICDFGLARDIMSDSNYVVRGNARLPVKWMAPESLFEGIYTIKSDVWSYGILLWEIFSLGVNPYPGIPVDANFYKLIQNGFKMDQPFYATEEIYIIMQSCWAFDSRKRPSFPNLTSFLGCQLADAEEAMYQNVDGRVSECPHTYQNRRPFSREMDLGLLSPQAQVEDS
Source text: The effect of potential modulators of kinase activity can be measured in a variety of different assays known in the art. For example, direct radiometric, indirect FRET or AlphaScreen assays may be used to assess the level of phosphorylation of a substrate in the presence of test compounds in order to determine the inhibitory affect of the compound on the kinase. Invitrogen (Carlsbad, Calif.) uses a FRET based assay for Btk, EGFR, EphB2, Flt3, lrak4, Kdr, MAP2K1, MAPKAPK2, PDGFRB, PKC theta, Stk6 and Yes. For these assays, compounds of the invention were screened by Invitrogen using Z′-Lyte™ kinase assay.
Briefly, the Invitrogen kinase assay involves use of a specific peptide substrate optimized for each kinase, containing a fluorophore at each end that make up the FRET pair. The peptide sensitivity to proteolytic cleavage depends on phosphorylation of the peptide. Non-phosphorylated peptide is cleaved by a protease while peptide phosphorylated by the kinase is not cleaved. Cleavage of the peptide disrupts the FRET between the donor (coumarin) and acceptor (fluorescein) fluorophores, resulting in an increase in the ratio of donor emission to acceptor emission. The emission ratio of coumarin to fluorescein is used to assess the reaction progress. The extent of phosphorylation is determined from the emission ratio, which is low when the kinase is active (phosphorylated peptide is not cleaved, FRET pair connected) or higher for inhibited kinase (non-phosphorylated peptide is cleaved, FRET pair separated). Thus, the assay involves a kinase reaction in the presence of varying concentrations of a given compound, a development reaction with site specific protease, and detection of the fluorescent emission ratio of coumarin and fluorscein. […] Reaction conditions for each kinase are determined to provide optimal reaction times, incubation temperature, kinase and ATP concentrations. Test samples are made up in 1× kinase buffer (50 mM HEPES pH 7.5, 50 mM MgCl2, 5 mM EGTA, 0.05% BRIJ-35) and compound at desired concentration prepared in DMSO such that the final DMSO is 1%. […] Typically, assay plates are prepared to 10 μl final volume per sample, adding 2.5 μl of compound at 4× the desired concentration in 4% DMSO (serial dilution of compound provides concentration curve), 5 μl of the desired kinase mixed with Z′-LYTE™ peptide substrate (2× in 2× kinase buffer, final peptide at 2 μM), and 2.5 μl of 4×ATP solution. All kinase except for MAP2K1 were at 10 μM ATP in the kinase reaction, while MAP2K1 was at 100 μM. Samples are mixed and the kinase reaction is incubated 1 hour at room temperature, after which 5 μl of development solution is added and mixed. After incubation for another 1 hour at room temperature, 5 μl of stop reagent is added to each sample and mixed. The fluorescence signals are measured to determine the emission ratio.

B-Raf V600E = molecular target: T5, B-Raf V600E (Homo sapiens, UniProt P15056, V600E); assay: AlphaScreen kinase assay, B-Raf V600E; type: biochemical; conditions: read-out: IC50, activity toward kinase B-Raf V600E
T5 construct: P4254. pFastBacBD-CDC37 BRAF D437-K722-X, V600E; His6 with pFastBac HT leader (TEV site) (N); made in house; host or cells: Sf9 (baculovirus; chaperone CDC37 co-expressed)

T3 sequence (P15056 whole entry): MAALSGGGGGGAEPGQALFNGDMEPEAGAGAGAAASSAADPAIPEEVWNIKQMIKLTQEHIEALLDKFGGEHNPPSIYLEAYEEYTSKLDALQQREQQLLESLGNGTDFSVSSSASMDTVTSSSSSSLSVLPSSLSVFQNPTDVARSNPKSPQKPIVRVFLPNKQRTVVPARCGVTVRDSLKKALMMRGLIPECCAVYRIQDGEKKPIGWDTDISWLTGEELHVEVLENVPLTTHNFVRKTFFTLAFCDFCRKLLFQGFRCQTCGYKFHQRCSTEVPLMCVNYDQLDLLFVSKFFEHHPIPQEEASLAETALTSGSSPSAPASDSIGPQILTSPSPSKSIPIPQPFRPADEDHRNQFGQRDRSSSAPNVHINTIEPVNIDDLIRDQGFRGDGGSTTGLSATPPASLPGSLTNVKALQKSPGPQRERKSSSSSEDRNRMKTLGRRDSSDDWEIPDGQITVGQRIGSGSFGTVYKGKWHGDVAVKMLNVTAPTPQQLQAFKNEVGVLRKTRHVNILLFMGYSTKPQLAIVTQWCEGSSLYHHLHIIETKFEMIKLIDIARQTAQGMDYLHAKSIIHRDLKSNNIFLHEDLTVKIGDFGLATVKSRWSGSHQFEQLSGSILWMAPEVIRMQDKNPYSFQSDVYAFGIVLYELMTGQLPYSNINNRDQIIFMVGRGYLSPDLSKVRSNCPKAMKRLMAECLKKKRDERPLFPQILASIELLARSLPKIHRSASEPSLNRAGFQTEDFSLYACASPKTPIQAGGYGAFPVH
Chain of ALK (Q9UM73 19-1620): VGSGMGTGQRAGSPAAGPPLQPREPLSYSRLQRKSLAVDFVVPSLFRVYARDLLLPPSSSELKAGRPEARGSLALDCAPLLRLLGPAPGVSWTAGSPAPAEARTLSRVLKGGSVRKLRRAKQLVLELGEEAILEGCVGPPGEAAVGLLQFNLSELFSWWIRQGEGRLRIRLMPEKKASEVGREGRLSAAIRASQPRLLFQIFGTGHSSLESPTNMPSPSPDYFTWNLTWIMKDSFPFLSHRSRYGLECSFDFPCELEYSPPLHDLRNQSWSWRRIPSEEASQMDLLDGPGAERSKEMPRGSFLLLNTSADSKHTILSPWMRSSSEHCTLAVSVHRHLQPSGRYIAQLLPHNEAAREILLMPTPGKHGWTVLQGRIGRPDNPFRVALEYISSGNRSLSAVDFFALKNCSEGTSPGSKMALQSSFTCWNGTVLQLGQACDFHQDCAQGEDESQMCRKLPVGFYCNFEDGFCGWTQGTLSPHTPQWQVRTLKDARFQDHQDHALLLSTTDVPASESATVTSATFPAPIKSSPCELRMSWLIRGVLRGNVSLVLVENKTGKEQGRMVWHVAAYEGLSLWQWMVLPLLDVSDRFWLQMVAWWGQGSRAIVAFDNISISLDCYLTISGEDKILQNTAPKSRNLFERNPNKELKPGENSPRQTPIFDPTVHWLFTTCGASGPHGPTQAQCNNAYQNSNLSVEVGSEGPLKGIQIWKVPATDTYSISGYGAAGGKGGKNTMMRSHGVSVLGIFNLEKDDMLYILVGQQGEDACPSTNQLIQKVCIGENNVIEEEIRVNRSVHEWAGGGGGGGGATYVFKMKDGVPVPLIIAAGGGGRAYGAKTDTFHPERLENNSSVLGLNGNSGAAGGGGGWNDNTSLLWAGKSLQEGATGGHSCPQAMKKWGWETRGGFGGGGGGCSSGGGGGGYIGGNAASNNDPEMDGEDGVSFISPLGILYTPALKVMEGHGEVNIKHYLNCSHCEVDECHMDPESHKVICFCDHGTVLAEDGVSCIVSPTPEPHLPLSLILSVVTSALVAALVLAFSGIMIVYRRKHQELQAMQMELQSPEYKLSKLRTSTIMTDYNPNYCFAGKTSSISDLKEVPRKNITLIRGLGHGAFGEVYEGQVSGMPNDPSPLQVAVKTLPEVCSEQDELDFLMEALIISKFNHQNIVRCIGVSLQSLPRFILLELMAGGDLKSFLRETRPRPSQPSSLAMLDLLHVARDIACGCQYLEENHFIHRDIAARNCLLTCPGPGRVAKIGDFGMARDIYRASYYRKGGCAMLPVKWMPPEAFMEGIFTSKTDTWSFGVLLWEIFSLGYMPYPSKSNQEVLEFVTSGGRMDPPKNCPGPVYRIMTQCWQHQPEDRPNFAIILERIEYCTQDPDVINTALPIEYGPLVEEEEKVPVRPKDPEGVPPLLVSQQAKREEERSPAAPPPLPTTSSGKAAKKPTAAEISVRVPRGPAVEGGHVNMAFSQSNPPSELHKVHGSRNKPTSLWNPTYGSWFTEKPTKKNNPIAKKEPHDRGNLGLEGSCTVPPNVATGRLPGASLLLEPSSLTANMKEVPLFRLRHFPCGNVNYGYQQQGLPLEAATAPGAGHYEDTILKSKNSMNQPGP
Chain of TrkA (P04629 33-796): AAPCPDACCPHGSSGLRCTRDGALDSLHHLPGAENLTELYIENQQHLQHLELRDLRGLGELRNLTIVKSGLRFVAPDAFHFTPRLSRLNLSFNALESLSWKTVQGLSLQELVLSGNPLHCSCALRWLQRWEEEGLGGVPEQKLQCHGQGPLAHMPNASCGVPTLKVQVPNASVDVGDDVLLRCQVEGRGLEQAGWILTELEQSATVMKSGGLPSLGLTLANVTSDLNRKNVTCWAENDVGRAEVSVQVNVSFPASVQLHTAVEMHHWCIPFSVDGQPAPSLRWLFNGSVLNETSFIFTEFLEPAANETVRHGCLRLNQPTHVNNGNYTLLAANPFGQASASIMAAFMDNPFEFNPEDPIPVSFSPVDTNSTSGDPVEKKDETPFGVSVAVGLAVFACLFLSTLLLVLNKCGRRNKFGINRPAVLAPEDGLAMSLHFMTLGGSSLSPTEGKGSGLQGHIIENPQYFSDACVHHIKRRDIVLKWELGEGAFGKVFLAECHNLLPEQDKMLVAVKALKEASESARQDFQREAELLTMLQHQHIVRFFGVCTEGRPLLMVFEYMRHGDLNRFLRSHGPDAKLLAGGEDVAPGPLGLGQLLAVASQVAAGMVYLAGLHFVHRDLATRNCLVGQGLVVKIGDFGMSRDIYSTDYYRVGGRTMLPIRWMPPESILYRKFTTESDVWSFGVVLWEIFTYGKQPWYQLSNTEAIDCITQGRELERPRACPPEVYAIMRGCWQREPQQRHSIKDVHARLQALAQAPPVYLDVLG
T1 sequence (P35968 20-1356): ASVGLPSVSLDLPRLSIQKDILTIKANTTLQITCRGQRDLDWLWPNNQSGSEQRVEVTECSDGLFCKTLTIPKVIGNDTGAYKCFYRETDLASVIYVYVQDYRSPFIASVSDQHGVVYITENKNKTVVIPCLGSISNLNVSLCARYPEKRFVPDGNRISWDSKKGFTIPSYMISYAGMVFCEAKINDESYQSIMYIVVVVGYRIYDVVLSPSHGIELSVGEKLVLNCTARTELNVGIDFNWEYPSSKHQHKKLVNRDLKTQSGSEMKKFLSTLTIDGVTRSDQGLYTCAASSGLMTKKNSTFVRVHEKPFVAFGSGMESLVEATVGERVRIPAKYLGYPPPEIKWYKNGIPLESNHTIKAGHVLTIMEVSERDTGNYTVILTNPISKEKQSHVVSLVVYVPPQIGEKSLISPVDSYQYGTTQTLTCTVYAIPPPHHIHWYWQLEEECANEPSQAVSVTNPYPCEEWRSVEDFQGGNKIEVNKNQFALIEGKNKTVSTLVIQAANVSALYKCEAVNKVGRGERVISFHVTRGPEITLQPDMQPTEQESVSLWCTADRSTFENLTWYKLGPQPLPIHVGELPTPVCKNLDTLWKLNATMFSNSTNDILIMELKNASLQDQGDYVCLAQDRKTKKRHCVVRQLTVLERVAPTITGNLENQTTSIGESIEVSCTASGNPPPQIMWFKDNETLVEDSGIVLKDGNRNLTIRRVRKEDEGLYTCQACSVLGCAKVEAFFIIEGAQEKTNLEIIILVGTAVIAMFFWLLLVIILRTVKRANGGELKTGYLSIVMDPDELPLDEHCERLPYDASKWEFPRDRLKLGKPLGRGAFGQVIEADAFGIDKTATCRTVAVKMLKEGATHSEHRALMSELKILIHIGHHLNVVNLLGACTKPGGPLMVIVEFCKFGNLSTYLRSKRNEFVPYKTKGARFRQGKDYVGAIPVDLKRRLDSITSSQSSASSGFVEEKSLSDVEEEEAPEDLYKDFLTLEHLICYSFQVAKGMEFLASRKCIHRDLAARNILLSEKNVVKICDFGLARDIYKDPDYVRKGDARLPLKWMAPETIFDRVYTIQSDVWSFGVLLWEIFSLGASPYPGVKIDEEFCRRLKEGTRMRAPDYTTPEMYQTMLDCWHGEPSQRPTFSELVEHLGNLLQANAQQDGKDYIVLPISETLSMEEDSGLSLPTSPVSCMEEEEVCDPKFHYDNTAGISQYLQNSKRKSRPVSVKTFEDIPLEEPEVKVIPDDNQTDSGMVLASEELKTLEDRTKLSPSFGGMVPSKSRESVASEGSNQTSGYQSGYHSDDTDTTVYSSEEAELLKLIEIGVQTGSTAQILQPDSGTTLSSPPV
T2 sequence (P04049 whole entry): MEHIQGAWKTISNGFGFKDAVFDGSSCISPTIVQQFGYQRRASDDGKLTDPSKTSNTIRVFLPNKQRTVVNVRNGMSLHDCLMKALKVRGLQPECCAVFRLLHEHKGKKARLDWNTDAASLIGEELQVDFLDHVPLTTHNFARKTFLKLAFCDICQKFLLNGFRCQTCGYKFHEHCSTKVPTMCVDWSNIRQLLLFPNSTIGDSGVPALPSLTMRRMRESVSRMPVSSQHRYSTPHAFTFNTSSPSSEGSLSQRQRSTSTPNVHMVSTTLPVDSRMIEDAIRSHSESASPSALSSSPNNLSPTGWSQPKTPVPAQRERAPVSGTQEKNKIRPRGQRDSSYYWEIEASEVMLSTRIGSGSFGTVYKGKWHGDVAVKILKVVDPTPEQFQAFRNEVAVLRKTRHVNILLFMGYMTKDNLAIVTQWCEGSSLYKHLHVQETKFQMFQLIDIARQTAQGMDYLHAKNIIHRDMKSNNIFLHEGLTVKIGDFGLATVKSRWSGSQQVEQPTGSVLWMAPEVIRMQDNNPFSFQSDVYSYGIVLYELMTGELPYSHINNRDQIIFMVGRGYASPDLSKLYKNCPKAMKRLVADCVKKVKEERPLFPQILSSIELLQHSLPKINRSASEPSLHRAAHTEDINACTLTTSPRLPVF

CCSCc1ccc2c(c1)c1c3c(c4c5cc(CSCC)ccc5n5c4c1n2[C@H]1C[C@](O)(C(=O)OC)[C@]5(C)O1)CNC3=O [CEP-1347]
brain TNF production (brain TNF production): inhibited brain TNF production
cytokine production (TNF-alpha, IL-6, MCP-1) [1]: reduced cytokine production

CN[C@@H]1C[C@H]2O[C@@](C)([C@@H]1OC)n1c3ccccc3c3c4c(c5c6ccccc6n2c5c31)C(=O)N[C@H]4O [UCN-01, 7-hydroxystaurosporine]
increase of the cytotoxicity of TMZ (U87MG glioma cells; combined with temozolomide): 5 fold
toxicity of the inhibitor alone (U87MG glioma cells; without TMZ): not in itself toxic

COc1ccc2c(c1)c(CC(=O)O)c(C)n2C(=O)c1ccc(Cl)cc1 [indomethacin]
proliferation and growth of MKN28 cells [2]: significantly inhibit proliferation and growth

Cc1cc2ncc(-c3ccccc3)nc2cc1C [AG1295]
cytotoxicity to AML blasts [3]: specifically cytotoxic

CS(=O)(=O)Nc1ccc([N+](=O)[O-])cc1OC1CCCCC1 [NS-398]
proliferation and growth of MKN28 cells [2]: significantly inhibit proliferation and growth

CCCS(=O)(=O)Nc1ccc(F)c(C(OC)c2c[nH]c3ncc(OC)cc23)c1F (stereo not shown) [Compound P-1244, Propane-1-sulfonic acid {2,4-difluoro-3-[methoxy-(5-methoxy-1H-pyrrolo[2,3-b]pyridin-3-yl)-methyl]-phenyl}-amide]
IC50 (TrkA): ≤ 10 µM
IC50 (Kdr): ≤ 10 µM
IC50 (ALK): ≤ 10 µM
IC50 (c-Raf-1): ≤ 10 µM
IC50 (B-Raf): ≤ 10 µM
IC50 (Frk): ≤ 10 µM
IC50 (Brk): ≤ 10 µM
IC50 (Flt3): ≤ 10 µM
IC50 (B-Raf V600E): ≤ 10 µM
